SMILES strings stand for the structures.

For one data set, the system named is herpes simplex. As to the kind of experiment: remission of herpes lesions in patient (Example 3).
The next data set has as its system human subjects. As to conditions: 0.24 ppm for two hours; cited from earlier work.
The test system of the next data set is enteroviruses. The conditions noted are these: in vitro, pure ozone; cited from earlier work.
In a further data set the test system is coliform. As to conditions: in vitro, pure ozone; cited from earlier work.
A further data set concerns mice. As to conditions: 3 hours of inhalation; cited from earlier work.
Another data set concerns coxsachie. As to conditions: in vitro, pure ozone; cited from earlier work.
A further data set concerns poliovirus 2. The conditions noted are these: in vitro, pure ozone; cited from earlier work.
The test system of a further data set is Aeromonas hydrophilia. The conditions noted are these: in vitro, pure ozone; cited from earlier work.
A further data set deals with S. aureus. As to conditions: in vitro, pure ozone; cited from earlier work.
Another data set has as its system mammals. The conditions noted are these: overdoses of pure O3; cited from earlier work.

As for `Nc1nc2c(ncn2COCCO)c(=O)[nH]1` [acyclovir], the “herpes lesions during treatment with acyclovir” value in the data set on herpes simplex is “had persisted”.

Regarding `O=[O+][O-]` [ozone], in the data set with human subjects, the cell functions entry is on record as “inhibition of certain cell functions”, the enzyme activities entry was “wide fluctuations in enzyme activities” and the respiratory capacity entry is on record as “drops in respiratory capacity”. The inactivation of enteroviruses result in the data set with enteroviruses is given as “inactivates”. For the same compound, in the data set on coliform, the inactivation of coliform entry is listed as “inactivates”. The LD50 with mice is given as 22 ppm. The inactivation of coxsachie result with coxsachie is reported as “inactivates”. The “inactivation of poliovirus 2” value in the data set on poliovirus 2 was “inactivates”. Further, the “inactivation of Aeromonas hydrophilia” value in the data set with Aeromonas hydrophilia is given as “inactivates”. Besides, in the data set with S. aureus, the “inactivation of S. aureus” value is “inactivates”. Further, the signs of overdose entry in the data set with mammals is “pulmonary edema and hemorrhaging”.

Source of the values: US5133975A, “Method for in vivo inactivation of blood borne HIV virus using a mixture of ozone and oxygen” (RJH and Company, Inc., priority 1989, dated 1992).
